Experiment [1] addresses Tyrosine-protein kinase ABL1 (Homo sapiens, UniProt P00519).
Experiment [2] concerns the target Casein kinase I isoform gamma-1 (Homo sapiens, UniProt Q9HCP0).
Experiment [3] has as its target T1, Delta(24)-sterol reductase (Homo sapiens, UniProt Q15392).
T1 sequence (Q15392 whole entry): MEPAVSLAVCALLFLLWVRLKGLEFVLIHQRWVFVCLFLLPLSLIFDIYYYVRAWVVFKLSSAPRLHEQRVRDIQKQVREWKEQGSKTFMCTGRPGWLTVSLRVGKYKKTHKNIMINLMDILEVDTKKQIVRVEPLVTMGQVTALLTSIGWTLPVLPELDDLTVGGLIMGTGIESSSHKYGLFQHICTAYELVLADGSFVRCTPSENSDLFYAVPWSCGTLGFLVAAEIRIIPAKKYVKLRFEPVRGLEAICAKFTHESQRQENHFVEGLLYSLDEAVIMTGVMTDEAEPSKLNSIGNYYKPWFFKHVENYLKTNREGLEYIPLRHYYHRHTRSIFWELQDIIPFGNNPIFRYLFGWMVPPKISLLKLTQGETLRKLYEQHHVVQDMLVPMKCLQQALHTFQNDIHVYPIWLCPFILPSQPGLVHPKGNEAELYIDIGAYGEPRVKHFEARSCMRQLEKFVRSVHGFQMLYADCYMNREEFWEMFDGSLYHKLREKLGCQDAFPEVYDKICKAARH

Experiment [4] concerns the target Glycogen synthase kinase-3 alpha (Homo sapiens, UniProt P49840).
Experiment [5] has as its target Inosine-5'-monophosphate dehydrogenase 2 (Homo sapiens, UniProt P12268).
In experiment [6] the target is Mitogen-activated protein kinase 1 (Homo sapiens, UniProt P28482).
For experiment [7], the target named is Protein-tyrosine kinase 2-beta (Homo sapiens, UniProt Q14289).
Experiment [8] addresses Ras-related protein Rab-6A (Homo sapiens, UniProt P20340).
In experiment [9] the target is Serine/threonine-protein kinase SIK2 (Homo sapiens, UniProt Q9H0K1).
The target in the next experiment is T2, ADP/ATP translocase 2 (Homo sapiens, UniProt P05141).
T2 sequence (P05141 whole entry): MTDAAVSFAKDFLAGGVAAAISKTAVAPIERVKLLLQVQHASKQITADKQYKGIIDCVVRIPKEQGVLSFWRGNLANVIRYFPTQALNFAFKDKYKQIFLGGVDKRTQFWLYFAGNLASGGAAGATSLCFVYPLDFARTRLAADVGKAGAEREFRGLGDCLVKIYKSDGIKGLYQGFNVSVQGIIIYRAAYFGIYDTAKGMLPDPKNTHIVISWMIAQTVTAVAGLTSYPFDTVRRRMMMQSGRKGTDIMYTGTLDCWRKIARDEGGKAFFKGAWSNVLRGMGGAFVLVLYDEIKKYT

The target of experiment [10] is STE20-like serine/threonine-protein kinase (Homo sapiens, UniProt Q9H2G2).
In experiment [11] the target is Proto-oncogene tyrosine-protein kinase Src (Homo sapiens, UniProt P12931).
A further experiment deals with GTP-binding protein 4 (Homo sapiens, UniProt Q9BZE4).
Experiment [12] addresses T3, Glycogen phosphorylase, brain form (Homo sapiens, UniProt P11216).
T3 sequence (P11216 whole entry): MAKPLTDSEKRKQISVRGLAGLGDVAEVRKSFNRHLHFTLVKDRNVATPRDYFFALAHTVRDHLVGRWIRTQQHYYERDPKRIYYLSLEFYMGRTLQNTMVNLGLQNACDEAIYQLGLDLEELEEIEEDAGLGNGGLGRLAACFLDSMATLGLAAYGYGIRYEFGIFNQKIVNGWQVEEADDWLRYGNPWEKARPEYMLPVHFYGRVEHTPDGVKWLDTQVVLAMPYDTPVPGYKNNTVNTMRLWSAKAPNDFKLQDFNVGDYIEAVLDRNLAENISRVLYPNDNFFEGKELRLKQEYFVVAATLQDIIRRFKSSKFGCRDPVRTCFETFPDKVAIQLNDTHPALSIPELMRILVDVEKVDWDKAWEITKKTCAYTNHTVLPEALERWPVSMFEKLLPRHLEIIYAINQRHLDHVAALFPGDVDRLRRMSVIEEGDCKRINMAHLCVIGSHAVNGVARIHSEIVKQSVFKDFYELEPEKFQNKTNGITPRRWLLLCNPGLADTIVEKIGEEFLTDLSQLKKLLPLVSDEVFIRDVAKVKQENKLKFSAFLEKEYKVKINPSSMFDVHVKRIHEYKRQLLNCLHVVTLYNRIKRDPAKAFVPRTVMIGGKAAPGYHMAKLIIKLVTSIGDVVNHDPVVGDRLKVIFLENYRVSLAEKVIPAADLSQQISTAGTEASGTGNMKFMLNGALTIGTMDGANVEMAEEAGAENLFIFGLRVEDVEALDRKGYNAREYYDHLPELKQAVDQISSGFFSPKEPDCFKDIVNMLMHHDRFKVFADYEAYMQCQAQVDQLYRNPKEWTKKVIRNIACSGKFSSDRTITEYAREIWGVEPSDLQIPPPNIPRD

Experiment [13] deals with Ribosomal protein S6 kinase beta-1 (Homo sapiens, UniProt P23443).

The structures appear in SMILES notation. The source made the active and inactive calls.
Also: in the data inactive means no Kd found up to 30 µM.

Chain of Protein-tyrosine kinase 2-beta (Q14289 whole entry): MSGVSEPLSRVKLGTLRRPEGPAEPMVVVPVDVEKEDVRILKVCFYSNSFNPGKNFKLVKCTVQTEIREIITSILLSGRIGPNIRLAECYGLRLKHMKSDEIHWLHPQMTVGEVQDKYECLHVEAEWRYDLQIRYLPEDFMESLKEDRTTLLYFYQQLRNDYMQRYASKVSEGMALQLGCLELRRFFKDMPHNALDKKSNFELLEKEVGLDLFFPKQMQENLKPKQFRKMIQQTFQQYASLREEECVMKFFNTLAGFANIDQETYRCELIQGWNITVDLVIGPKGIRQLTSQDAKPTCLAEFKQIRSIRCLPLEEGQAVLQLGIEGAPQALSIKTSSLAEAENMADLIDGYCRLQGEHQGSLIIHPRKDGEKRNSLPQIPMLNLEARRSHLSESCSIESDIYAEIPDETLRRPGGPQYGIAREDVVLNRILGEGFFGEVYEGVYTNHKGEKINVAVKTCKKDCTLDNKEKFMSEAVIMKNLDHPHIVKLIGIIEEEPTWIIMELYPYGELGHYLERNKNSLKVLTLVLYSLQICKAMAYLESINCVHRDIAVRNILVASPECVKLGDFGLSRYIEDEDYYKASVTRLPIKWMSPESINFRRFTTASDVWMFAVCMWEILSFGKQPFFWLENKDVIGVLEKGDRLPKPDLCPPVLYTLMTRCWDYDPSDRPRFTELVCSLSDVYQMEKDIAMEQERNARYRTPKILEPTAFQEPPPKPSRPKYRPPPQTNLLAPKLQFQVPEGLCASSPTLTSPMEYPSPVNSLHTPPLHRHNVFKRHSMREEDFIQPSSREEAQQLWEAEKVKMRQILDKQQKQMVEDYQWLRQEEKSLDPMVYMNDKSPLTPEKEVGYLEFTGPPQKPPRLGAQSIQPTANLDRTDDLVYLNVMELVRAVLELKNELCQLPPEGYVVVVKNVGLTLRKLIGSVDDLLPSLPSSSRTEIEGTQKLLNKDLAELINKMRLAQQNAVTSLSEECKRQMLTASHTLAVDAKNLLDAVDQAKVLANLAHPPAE
Chain of Glycogen synthase kinase-3 alpha (P49840 whole entry): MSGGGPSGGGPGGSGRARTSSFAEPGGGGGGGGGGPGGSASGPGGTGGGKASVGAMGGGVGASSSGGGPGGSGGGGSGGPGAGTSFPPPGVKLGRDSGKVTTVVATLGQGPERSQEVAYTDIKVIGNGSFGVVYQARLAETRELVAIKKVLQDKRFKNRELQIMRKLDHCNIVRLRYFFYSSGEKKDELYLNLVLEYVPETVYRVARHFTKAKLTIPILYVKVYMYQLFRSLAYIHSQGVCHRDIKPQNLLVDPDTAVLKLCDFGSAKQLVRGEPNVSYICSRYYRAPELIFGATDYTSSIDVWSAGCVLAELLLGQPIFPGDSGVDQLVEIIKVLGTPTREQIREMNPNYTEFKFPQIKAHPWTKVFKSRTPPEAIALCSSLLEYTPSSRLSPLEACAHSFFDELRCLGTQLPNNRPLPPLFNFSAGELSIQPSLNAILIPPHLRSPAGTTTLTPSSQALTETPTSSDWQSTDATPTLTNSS
Chain of Proto-oncogene tyrosine-protein kinase Src (P12931 2-536 limits assumed): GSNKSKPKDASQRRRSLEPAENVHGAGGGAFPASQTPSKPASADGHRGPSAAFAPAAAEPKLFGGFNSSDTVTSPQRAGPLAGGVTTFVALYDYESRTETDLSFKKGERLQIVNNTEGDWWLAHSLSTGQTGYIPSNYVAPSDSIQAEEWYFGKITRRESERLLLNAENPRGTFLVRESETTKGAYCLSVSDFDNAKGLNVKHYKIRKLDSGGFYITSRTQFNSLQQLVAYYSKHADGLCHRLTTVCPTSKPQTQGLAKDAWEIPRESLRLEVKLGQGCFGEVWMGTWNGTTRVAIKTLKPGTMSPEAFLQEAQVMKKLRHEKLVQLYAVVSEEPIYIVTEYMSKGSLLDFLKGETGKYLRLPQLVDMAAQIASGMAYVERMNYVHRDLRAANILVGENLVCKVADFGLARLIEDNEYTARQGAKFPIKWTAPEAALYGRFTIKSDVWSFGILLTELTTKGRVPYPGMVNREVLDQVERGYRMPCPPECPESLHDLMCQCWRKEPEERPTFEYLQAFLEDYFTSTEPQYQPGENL
Chain of Casein kinase I isoform gamma-1 (Q9HCP0 whole entry, canonical isoform): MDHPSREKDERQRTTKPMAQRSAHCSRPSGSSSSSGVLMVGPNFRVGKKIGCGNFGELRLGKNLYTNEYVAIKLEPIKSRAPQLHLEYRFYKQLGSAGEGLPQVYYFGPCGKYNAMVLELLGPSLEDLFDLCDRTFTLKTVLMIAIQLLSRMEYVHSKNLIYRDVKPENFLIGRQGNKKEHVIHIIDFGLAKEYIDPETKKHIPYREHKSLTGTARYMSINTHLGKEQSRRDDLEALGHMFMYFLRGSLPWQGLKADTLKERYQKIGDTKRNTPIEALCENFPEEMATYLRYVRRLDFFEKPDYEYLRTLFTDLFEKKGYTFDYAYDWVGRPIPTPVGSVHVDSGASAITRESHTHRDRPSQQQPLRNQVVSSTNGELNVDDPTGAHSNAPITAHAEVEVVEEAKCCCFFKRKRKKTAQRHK
Chain of Ras-related protein Rab-6A (P20340 whole entry): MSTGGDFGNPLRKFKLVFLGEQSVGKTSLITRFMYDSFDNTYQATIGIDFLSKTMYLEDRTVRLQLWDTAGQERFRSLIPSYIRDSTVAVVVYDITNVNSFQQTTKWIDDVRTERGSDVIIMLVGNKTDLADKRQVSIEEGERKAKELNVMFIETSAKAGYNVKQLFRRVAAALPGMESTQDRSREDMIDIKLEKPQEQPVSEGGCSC
Chain of Tyrosine-protein kinase ABL1 (P00519 whole entry, canonical isoform): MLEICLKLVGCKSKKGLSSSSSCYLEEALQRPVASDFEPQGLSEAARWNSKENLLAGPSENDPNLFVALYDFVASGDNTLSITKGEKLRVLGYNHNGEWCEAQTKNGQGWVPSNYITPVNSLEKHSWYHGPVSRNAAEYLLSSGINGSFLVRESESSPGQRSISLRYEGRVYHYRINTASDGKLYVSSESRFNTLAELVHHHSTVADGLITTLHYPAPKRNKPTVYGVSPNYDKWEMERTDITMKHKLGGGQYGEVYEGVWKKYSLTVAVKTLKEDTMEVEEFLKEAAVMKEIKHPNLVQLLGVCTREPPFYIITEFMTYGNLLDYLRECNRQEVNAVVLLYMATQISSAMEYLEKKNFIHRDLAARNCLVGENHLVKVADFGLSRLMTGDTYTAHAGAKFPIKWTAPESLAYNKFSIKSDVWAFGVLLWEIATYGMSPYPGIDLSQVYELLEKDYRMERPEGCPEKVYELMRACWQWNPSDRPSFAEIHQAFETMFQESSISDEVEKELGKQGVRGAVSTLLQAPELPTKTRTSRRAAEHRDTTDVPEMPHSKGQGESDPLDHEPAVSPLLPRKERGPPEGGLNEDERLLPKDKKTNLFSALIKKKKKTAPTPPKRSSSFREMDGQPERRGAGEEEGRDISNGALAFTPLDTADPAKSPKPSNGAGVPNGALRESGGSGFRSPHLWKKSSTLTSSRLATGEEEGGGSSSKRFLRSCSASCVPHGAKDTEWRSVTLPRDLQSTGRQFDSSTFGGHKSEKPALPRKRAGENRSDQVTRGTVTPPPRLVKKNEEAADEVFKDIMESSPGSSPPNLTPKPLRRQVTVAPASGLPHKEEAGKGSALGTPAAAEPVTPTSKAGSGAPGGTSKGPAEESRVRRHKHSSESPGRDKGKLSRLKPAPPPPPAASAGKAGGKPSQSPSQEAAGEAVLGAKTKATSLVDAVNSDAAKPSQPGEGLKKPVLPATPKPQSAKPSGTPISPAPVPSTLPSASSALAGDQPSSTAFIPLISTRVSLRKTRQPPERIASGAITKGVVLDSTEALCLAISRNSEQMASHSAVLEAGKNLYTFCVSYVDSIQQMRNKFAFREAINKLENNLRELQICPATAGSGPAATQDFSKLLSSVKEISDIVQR
Chain of STE20-like serine/threonine-protein kinase (Q9H2G2 whole entry): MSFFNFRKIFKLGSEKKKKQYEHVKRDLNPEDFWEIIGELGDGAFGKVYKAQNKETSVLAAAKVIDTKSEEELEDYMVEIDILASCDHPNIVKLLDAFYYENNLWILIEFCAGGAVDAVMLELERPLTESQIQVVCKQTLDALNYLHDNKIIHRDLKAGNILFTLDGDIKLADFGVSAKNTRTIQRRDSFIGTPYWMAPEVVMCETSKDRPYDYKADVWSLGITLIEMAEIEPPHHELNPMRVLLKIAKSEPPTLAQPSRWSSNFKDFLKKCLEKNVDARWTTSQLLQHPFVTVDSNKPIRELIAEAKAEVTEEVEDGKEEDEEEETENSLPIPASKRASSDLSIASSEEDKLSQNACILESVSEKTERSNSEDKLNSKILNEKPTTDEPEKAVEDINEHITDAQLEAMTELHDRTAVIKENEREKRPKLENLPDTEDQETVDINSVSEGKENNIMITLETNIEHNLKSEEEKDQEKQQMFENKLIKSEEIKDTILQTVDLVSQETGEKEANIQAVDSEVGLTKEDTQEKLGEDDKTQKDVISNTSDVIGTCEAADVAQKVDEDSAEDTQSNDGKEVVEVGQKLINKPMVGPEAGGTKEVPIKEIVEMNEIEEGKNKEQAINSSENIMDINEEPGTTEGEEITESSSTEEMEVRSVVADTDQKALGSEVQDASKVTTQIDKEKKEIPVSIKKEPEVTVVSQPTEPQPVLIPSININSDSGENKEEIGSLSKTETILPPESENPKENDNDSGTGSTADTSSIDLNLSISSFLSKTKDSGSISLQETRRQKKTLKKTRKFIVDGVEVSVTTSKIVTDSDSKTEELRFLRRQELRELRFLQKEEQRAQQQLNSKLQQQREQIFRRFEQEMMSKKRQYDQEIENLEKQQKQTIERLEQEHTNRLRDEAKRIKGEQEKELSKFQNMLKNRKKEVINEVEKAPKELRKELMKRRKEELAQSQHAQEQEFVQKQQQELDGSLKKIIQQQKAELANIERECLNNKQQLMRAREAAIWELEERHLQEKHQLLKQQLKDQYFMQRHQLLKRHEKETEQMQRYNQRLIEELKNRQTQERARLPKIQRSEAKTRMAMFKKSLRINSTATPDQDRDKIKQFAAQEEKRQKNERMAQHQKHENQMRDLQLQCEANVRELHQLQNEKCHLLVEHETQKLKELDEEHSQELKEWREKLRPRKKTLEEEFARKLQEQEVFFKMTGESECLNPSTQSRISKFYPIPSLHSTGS

As to `CCOc1ccn(-c2ccc(F)cc2)c(=O)c1C(=O)Nc1ccc(Oc2ccnc(N)c2Cl)c(F)c1` [BMS-777607], the Kd (usually the free concentration of one partner at which half of the binding sites on the other are occupied at equilibrium, for simple one-to-one binding) is 0.523 µM (active) in experiment [1]; > 30 µM (inactive) in [2]; > 30 µM (inactive) in experiment [3]; > 30 µM (inactive) in experiment [4]; > 30 µM (inactive) in experiment [5]; > 30 µM (inactive) in [6]. Further, the Kd (in experiment [7]; in experiment [8]; in experiment [9]; at ADP/ATP translocase 2; in experiment [10]; in [11]) was > 30 µM (inactive) in each case.

On to `COc1cc2ncnc3c2cc1OCCCCCN(C)Cc1ccc(Br)cc1N3` [JNJ-26483327], for which the Kd (in experiment [1]; in experiment [2]; in [4]; on GTP-binding protein 4; in [5]; in experiment [6]) was > 30 µM (inactive) throughout. Besides, the Kd (in experiment [7]; in experiment [12]; in [8]; in experiment [9]; at ADP/ATP translocase 2; in [10]) was > 30 µM (inactive) throughout. Also, in [11], the Kd was > 30 µM (inactive).

On to `O=S(=O)(c1cccc2cnccc12)N1CCCNCC1` [FASUDIL], for which the Kd (in experiment [1]; in experiment [2]; in [3]; at GTP-binding protein 4; in experiment [5]; in experiment [7]) was > 30 µM (inactive) each time. Moreover, the Kd (in [12]; in experiment [8]; in [9]; at ADP/ATP translocase 2) was > 30 µM (inactive) in each case.

On to `O=S(=O)(c1cccc2c(O)nccc12)N1CCCNCC1` [HYDROXYFASUDIL], for which the Kd (in experiment [2]; in experiment [3]; in [4]; at GTP-binding protein 4; in [5]; in experiment [7]) was > 30 µM (inactive) each time. For the same compound, the Kd (in [12]; in experiment [8]; in experiment [13]; in experiment [9]; on ADP/ATP translocase 2; in [10]) was > 30 µM (inactive) each time. In addition, the Kd in experiment [11] is > 30 µM (inactive).

As for `O=c1[nH]c([C@@H]2CCCN2)nc2c1oc1ccc(Cl)cc12`, the Kd (in experiment [1]; in experiment [2]; in [3]; in [4]; on GTP-binding protein 4; in experiment [5]) was > 30 µM (inactive) in each case. In addition, the Kd (in [6]; in [7]; in [12]; in experiment [9]; at ADP/ATP translocase 2; in [10]) was > 30 µM (inactive) each time. The Kd in experiment [11] is > 30 µM (inactive).

With `Cn1cc(-c2[nH]c3cc(NC(=O)[C@H](N)C4CCCCC4)cc4c3c2C=NNC4=O)cn1`, the Kd (in experiment [2]; in experiment [3]; in [4]; at GTP-binding protein 4; in experiment [5]; in experiment [6]) was > 30 µM (inactive) throughout. For the same compound, the Kd in experiment [7] is > 30 µM (inactive); in experiment [12], > 30 µM (inactive); in [8], > 30 µM (inactive); in [13] it was 2.38 µM (active); in experiment [9], 0.047 µM (active); on ADP/ATP translocase 2, > 30 µM (inactive). Moreover, the Kd in experiment [10] was > 30 µM (inactive); in experiment [11], 1.4 µM (active).

These data come from ChEMBL document CHEMBL3991601, “The target landscape of clinical kinase drugs” (Science, 2017).
